Consider ten compounds from ChEMBL document CHEMBL1201862, “PubChem BioAssay data set” (2004).

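Briefly, cells in 96-well plates were exposed to five compound concentrations for 48 h, and endpoints were estimated by linear interpolation. Abbreviation: GI50, concentration required for 50% inhibition of growth.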 The source made the active and inactive calls. Cut-off read from the data, not from the text of the source: active = GI50 up to about 1.1 µM and inactive = higher.

Among the test systems are PC-3; HCT-15; OVCAR-8; KM12; OVCAR-3; SK-MEL-28; SW-620; A549; HL-60; K562; NCI/ADR-RES; TK-10; A498; UACC-257; HOP-92; HCC 2998; SR; MDA-N; LOX IMVI; COLO 205.
What all share (assay): NCI anticancer screen, dose series, 48 h

For the compound `C=C(c1ccccc1)c1ccccc1-c1cc(-c2ccccc2)cc(-c2ccccc2)n1`, the GI50 was > 100 µM (inactive) with PC-3; over 100 µM in the test with HCT-15; > 100 µM (inactive) with OVCAR-8; > 100 µM (inactive) in the test on KM12; 76.6 µM (inactive) in the test on OVCAR-3; > 100 µM (inactive) with SK-MEL-28. For the same compound, the GI50 with SW-620 is > 100 µM (inactive); with A549, > 100 µM (inactive); in the test with HL-60, 34.5 µM (inactive); in the test with K562, 53.6 µM (inactive); with NCI/ADR-RES it was > 100 µM (inactive); in the test with TK-10, > 100 µM (inactive). Moreover, the GI50 was > 100 µM (inactive) in the test with A498; > 100 µM (inactive) with UACC-257; > 100 µM (inactive) in the test with HOP-92; 98.6 µM (inactive) with HCC 2998; > 100 µM (inactive) in the test on SR; > 100 µM (inactive) in the test with MDA-N. In the test with LOX IMVI, the GI50 is > 100 µM (inactive).

As for `CC1=CC(=O)CC(C)(C)C1/C=C/C(C)=C/C=C/C(C)=C/C=C/C=C(C)/C=C/C=C(C)/C=C/C1C(C)=CC(=O)CC1(C)C` (centres undefined), the GI50 in the test on PC-3 is 41.1 µM (inactive); in the test on HCT-15 it was 27 µM; in the test with OVCAR-8 it was 20.1 µM (inactive); in the test with KM12, 37.2 µM (inactive); in the test on OVCAR-3, 30.5 µM (inactive); in the test with SK-MEL-28, > 100 µM (inactive). Besides, the GI50 was 23.2 µM (inactive) with SW-620; 38.5 µM (inactive) with HL-60; 37.2 µM (inactive) with K562; 72.6 µM (inactive) in the test on NCI/ADR-RES; 77.1 µM (inactive) with TK-10; > 100 µM (inactive) in the test with A498. Besides, the GI50 was 61.2 µM (inactive) with UACC-257; 23.3 µM (inactive) with HOP-92; 53.1 µM (inactive) in the test with HCC 2998; 66.1 µM (inactive) in the test on SR; 35.1 µM (inactive) with MDA-N; 29.3 µM (inactive) in the test with LOX IMVI.

Take `C=CCC1(O)c2cccc(O)c2C(=O)c2c(O)cccc21`: the GI50 in the test with PC-3 was 26 µM (inactive); in the test on HCT-15, 17.7 µM; in the test with OVCAR-8, 32.2 µM (inactive); with KM12, 24.4 µM (inactive); with OVCAR-3, 47.9 µM (inactive); with SK-MEL-28, 31.7 µM (inactive). Besides, the GI50 was 31.6 µM (inactive) with SW-620; 24 µM (inactive) in the test on A549; 20.5 µM (inactive) in the test on HL-60; 21 µM (inactive) with K562; 18.9 µM (inactive) in the test on NCI/ADR-RES; 32.7 µM (inactive) in the test on TK-10. Moreover, the GI50 with A498 was 29 µM (inactive); in the test on UACC-257, 23 µM (inactive); in the test on HOP-92 it was 28.1 µM (inactive); in the test with HCC 2998, 17.5 µM (inactive); in the test with SR it was 10.9 µM (inactive); in the test on MDA-N it was 9.93 µM (inactive). In the test with LOX IMVI, the GI50 was 20.9 µM (inactive).

For the compound `COCCOCc1nc(C#N)c(N)o1`, the GI50 with PC-3 was > 100 µM (inactive); in the test with HCT-15, over 100 µM; in the test with KM12 it was > 100 µM (inactive); in the test with OVCAR-3, > 100 µM (inactive); with SK-MEL-28, > 100 µM (inactive); in the test on SW-620, > 100 µM (inactive). The GI50 in the test with A549, with HL-60, in the test on K562, in the test with NCI/ADR-RES, in the test on TK-10 and with A498 was > 100 µM (inactive) in each case. Besides, the GI50 with UACC-257, with HOP-92, in the test on COLO 205, in the test with HCC 2998, in the test on SR and in the test on MDA-N was > 100 µM (inactive) throughout. Also, the GI50 with LOX IMVI was > 100 µM (inactive).

As for `CC(=O)O[C@H]1CC(C)(C)C(=C=C/C(C)=C/C=C/C=C/C=C(C)/C=C2C=C(/C=C/[C@@]34O[C@]3(C)C[C@@H](O)CC4(C)C)C(=O)O/2)[C@](C)(O)C1`, the GI50 in the test with PC-3 was 4.22 µM (inactive); in the test with HCT-15, 11 µM; with OVCAR-8, 3.76 µM (inactive); with KM12 it was 5.4 µM (inactive); in the test on OVCAR-3 it was 10.1 µM (inactive); in the test on SK-MEL-28, 23.6 µM (inactive). The GI50 in the test on SW-620 is 19.6 µM (inactive); with A549, 11.5 µM (inactive); in the test with HL-60, 1.78 µM (inactive); in the test with K562, 10 µM (inactive); with NCI/ADR-RES it was 5.93 µM (inactive); in the test on TK-10, 0.959 µM (active). The GI50 in the test on A498 is 24.7 µM (inactive); in the test on UACC-257 it was 12.8 µM (inactive); in the test on HOP-92 it was 12.6 µM (inactive); with COLO 205 it was 19.6 µM (inactive); in the test on HCC 2998, 20.7 µM (inactive); in the test on SR, 6.76 µM (inactive). Besides, in the test on MDA-N, the GI50 was 12.7 µM (inactive).

On to `CCOC(=O)C1C(c2ccc3c(c2)OCO3)c2c(n[nH]c2O)CC1(C)O` (centres undefined), for which the GI50 with PC-3 is > 100 µM (inactive); with HCT-15, over 100 µM; in the test on OVCAR-8, > 100 µM (inactive); in the test with KM12 it was > 100 µM (inactive); with OVCAR-3, > 100 µM (inactive); in the test with SK-MEL-28, > 100 µM (inactive). The GI50 in the test on SW-620, in the test with A549, in the test on HL-60, in the test on NCI/ADR-RES, in the test with TK-10 and with A498 was > 100 µM (inactive) in each case. The GI50 in the test with UACC-257, with HOP-92, with COLO 205, in the test on HCC 2998, in the test on SR and with MDA-N was > 100 µM (inactive) each time. In the test with LOX IMVI, the GI50 is > 100 µM (inactive).

On to `CC(=N\N=C\c1ccccn1)/C(C)=N/N=C(C)/C(C)=N/N=C/c1ccccn1`, for which the GI50 in the test with PC-3 is > 100 µM (inactive); in the test on HCT-15, 71.3 µM; in the test with OVCAR-8, > 100 µM (inactive); in the test on KM12, > 100 µM (inactive); in the test on OVCAR-3 it was > 100 µM (inactive); in the test with SK-MEL-28, > 100 µM (inactive). Besides, the GI50 in the test with SW-620, with A549, with HL-60, with NCI/ADR-RES, in the test on TK-10 and in the test with A498 was > 100 µM (inactive) in each case. Besides, the GI50 in the test with UACC-257, with HOP-92, in the test on COLO 205, in the test with HCC 2998, in the test with SR and in the test on MDA-N was > 100 µM (inactive) each time. Moreover, in the test on LOX IMVI, the GI50 was > 100 µM (inactive).

`COc1ccc(C2(O)c3ccccc3C(=O)N(C)C2(O)c2ccc(OC)cc2)cc1` (centres undefined): the GI50 in the test on PC-3 is 33.9 µM (inactive); with HCT-15, 40.4 µM; in the test on OVCAR-8, 81.7 µM (inactive); with KM12, 16.4 µM (inactive); with OVCAR-3, 57 µM (inactive); with SK-MEL-28 it was 25.6 µM (inactive). The GI50 in the test with SW-620 is 34.2 µM (inactive); with A549, 57.8 µM (inactive); with HL-60, 32.6 µM (inactive); in the test with K562, 55.8 µM (inactive); with NCI/ADR-RES, 24 µM (inactive); with TK-10, 59.4 µM (inactive). The GI50 in the test with A498 is 73.1 µM (inactive); with UACC-257, 61.9 µM (inactive); in the test with HOP-92, 36.3 µM (inactive); with COLO 205, 22.6 µM (inactive); with HCC 2998, 49.3 µM (inactive); with SR it was 36.3 µM (inactive). For the same compound, the GI50 in the test with MDA-N was 17.7 µM (inactive); in the test on LOX IMVI, 30.1 µM (inactive).

Turning to `O=C1C(O)=C(Cl)C(=O)c2c(O)ccc(O)c21`, the GI50 in the test on PC-3 is > 100 µM (inactive); in the test on HCT-15, over 100 µM; in the test with OVCAR-8 it was > 100 µM (inactive); in the test with KM12 it was > 100 µM (inactive); with OVCAR-3, > 100 µM (inactive); in the test on SK-MEL-28, > 100 µM (inactive). For the same compound, the GI50 in the test on SW-620, in the test on A549, with HL-60, with K562, in the test with NCI/ADR-RES and with TK-10 was > 100 µM (inactive) each time. In addition, the GI50 with A498, in the test with UACC-257, with HOP-92, in the test on COLO 205, with HCC 2998 and in the test with SR was > 100 µM (inactive) each time. For the same compound, the GI50 with MDA-N was > 100 µM (inactive).

Turning to `COc1cc(/C=C\c2ccc(SC)cc2)cc(OC)c1OC`, the GI50 with PC-3 is < 0.01 µM (active); in the test on HCT-15, 0.0329 µM; in the test with OVCAR-8 it was 0.0231 µM (active); in the test on KM12, 0.0241 µM (active); in the test with OVCAR-3 it was 0.0128 µM (active); in the test with SW-620, < 0.01 µM (active). Also, the GI50 in the test on A549 was 0.0215 µM (active); in the test with HL-60, < 0.0123 µM (active); in the test on K562, < 0.01 µM (active); in the test on NCI/ADR-RES it was 0.0395 µM (active); in the test with TK-10, 23.7 µM (inactive); in the test on A498, 0.883 µM (active). For the same compound, the GI50 in the test on HOP-92 is 0.498 µM (active); in the test on COLO 205, 0.0271 µM (active); with HCC 2998, < 0.01 µM (active); in the test on SR it was < 0.01 µM (active); with MDA-N, < 0.01 µM (active); with LOX IMVI, < 0.0262 µM (active).
